Source: patent publication US4232166A, “15-Deoxy-16-hydroxy-17-methylene prostaglandins of the E and F series” (American Cyanamid Company, priority 1979, dated 1980)

Legend:
Type in all cases: in vivo
[1] = tested on: bronchospasms elicited by serotonin; experiment: Konzett procedure: bronchodilator activity in Guinea-Pigs against bronchospasms elicited by intravenous serotonin; conditions: Cavia porcellus, three logarithmic cumulative intravenous doses
Procedure: (§1) The bronchodilator activity for representative compounds of this invention was determined in Guinea-Pigs against bronchospasms elicited by intravenous injections of serotonin, histamine, and acetylcholine, by the Konzett procedure the details of which are those discussed by J. Lulling, P Lievens, F. El Sayed and J. Prignot, Arzeimittel-Forschung 18, 995 (1968).
(§2) In the table which follows, bronchodilator activity for representative compounds of the invention against spasmogenic agents serotonin, histamine, and acetylcholine is expressed as an ED50 determined from the results obtained with three logarithmic cumulative intravenous doses.

[2] = tested on: bronchospasms elicited by acetylcholine; experiment: Konzett procedure: bronchodilator activity in Guinea-Pigs against bronchospasms elicited by intravenous acetylcholine; conditions: Cavia porcellus, three logarithmic cumulative intravenous doses, read-out: ED50 ACETYL CHOLINE
Procedure: as §1, §2

[3] = tested on: bronchospasms elicited by histamine; experiment: Konzett procedure: bronchodilator activity in Guinea-Pigs against bronchospasms elicited by intravenous histamine; conditions: Cavia porcellus, three logarithmic cumulative intravenous doses
Procedure: as §1, §2

SMILES	ED50 [1]	ED50 [2]	ED50 [3]
C=C(CCC)C(C)(O)C/C=C/[C@H]1[C@H](O)CC(=O)[C@@H]1C/C=C\CCCC(=O)O (relative stereo) [dl 9-oxo-11α,16-dihydroxy-16-methyl-17-methylene-5-cis,13-trans-prostadienoic acid]	2.5 µg/kg	3.6 µg/kg	1.2 µg/kg
C=C(CCC)C(O)C/C=C/[C@H]1[C@H](O)CC(=O)[C@@H]1C/C=C\CCCC(=O)O (relative stereo) [dl 9-oxo-11α,16-dihydroxy-17-methylene-5-cis, 13-trans-prostadienoic acid]	5.4 µg/kg	24 µg/kg	10.6 µg/kg
